Data on 2 compounds can be found in US11197862B2, “Methods of preventing toxicity of platinum drugs” (XOMICS BIOPHARMA, INC., priority 2015, dated 2021).

Series [1] has as its target T1, OCT2 (Homo sapiens, UniProt O15244).
T1 sequence (O15244 1-555): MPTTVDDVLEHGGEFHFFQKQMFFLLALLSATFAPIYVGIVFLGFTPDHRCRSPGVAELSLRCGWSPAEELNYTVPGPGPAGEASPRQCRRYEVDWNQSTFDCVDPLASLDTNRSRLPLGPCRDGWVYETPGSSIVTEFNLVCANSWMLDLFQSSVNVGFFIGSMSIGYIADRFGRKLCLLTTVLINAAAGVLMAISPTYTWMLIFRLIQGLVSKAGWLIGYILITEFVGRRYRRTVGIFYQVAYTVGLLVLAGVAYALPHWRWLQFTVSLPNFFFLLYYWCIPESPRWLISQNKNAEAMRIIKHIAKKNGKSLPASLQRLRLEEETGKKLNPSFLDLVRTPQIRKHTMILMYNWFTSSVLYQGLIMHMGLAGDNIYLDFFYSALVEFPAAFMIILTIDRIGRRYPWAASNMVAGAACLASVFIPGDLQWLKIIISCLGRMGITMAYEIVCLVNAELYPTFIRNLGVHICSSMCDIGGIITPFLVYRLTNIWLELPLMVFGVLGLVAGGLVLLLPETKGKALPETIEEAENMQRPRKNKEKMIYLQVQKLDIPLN
In words: Inhibition of OCT2-mediated oxaliplatin uptake in transfected MDCK-II cells (protein-free HBSS). To be noted: for inhibition at 30 min, 5 μM / inhibition at 30 min, 50 μM / potency estimated from few doses at 30 min: human. From the text:
Fully confluent MDCK cell monolayers were transfected with either cDNA plasmids encoding the human transporter to be tested or a GFP control. […] The cells were then washed with ice-cold PBS and lysed with 50:50 acetonitrile:H2O. Intracellular content of the substrate was quantified by LC/MS/MS or a MicroBeta radiometric plate reader.

Series [2] deals with T1, OCT2.
The test system of series [3] is Balb/c mice exposed to acute treatment with Oxaliplatin. The experiment in a line: Dynamic test (mechanical pain threshold) after a single oxaliplatin administration. It counts as in vivo, mouse. To be noted: 24 hours after single OXA 3.5 mg/kg iv; DTG 4 mg/kg ip 1 hour before; CPC 4 mg/kg iv co-administered; listed as CPC. How it is done: OXA vehicle, OXA, CPC, DTG, DTG+OXA and CPC+OXA were administered once time. In the group co-administered with OXA and DTG. DTG was injected intraperitoneally 1 hour before the administration of OXA. In the group co-administered with OXA and CPC, CPC was co-administered with OXA intravenously. Mechanical allodynia and cold sensory threshold (dynamic test and cold plate test) were performed 24 and 48 hours after the treatment, respectively, using the methods described in EXAMPLE 15 Plasma Sample Collection

For series [4] the following is noted: human, in vivo; cited from earlier work.
The conditions of series [5]: human, in vivo.
In series [6] the target is T1, OCT2. The experiment in a line: in vitro.
Series [7] deals with T1, OCT2. The note with it: human, 20 μM; cited from earlier work.
The target in series [8] is T1, OCT2. In words: Inhibition of OCT2-mediated metformin uptake in transfected MDCK-II cells.
The target of series [9] is T1, OCT2. In words: in vitro. This is another data set of the same source.

With `NC(=O)OCC(O)COc1ccc(Cl)cc1` (stereo not drawn) [Chlorphenesin Carbamate], at OCT2 [1] (comparison of Table 1 potencies), the “fold less potent as inhibitor of OCT2-mediated metformin and oxaliplatin uptake than of ASP+ uptake” value is “more than 100 fold”. On OCT2 [1], the inhibition (as a rule, the relative decrease from the control value, in per cent) at 30 min, 5 μM turned out to be 28% and the inhibition at 30 min, 50 μM came to 36%. Also, at OCT2 [1] (IC50 (μM) (substrate Oxaliplatin)), the potency estimated from few doses at 30 min was 90.4 µM. The “IC50 (μM) (substrate Metformin)” value against OCT2 [2] was “no”. In series [3], the “Mechanical Pain Threshold (MPT), mechanical hypersensitivity” value is on record as “no such effect”.

In the case of `CCNC(=O)[C@@H]1CCCN1C(=O)[C@H](CCCNC(=N)N)NC(=O)[C@H](CC(C)C)NC(=O)[C@@H](CC(C)C)NC(=O)[C@H](Cc1ccc(O)cc1)NC(=O)[C@H](CO)NC(=O)[C@H](Cc1c[nH]c2ccccc12)NC(=O)[C@H](Cc1c[nH]cn1)NC(=O)[C@@H]1CCC(=O)N1` [Leuprolide], in series [4], the Cmax (as a rule, the maximum level reached in the sampled fluid or tissue) was 17 nM and the “Plasma protein binding (%)” value is on record as 46%. Also, the “Plasma peak unbound concentration Cmax,u” value in [5] is 10 nM. At OCT2 [6], the inhibition at 5 min, 5 μM was found to be 58% and the inhibition at 5 min, 50 μM stood at 91%. Besides, at OCT2 [1], the IC50 (as a rule, the midpoint of a concentration-inhibition curve) turned out to be 1570 nM; the inhibition at 30 min, 5 μM amounted to 76%; the inhibition at 30 min, 50 μM was found to be 97%; the potency estimated from few doses at 30 min was 1.57 µM. The “Inhibition % @ 20 μM (substrate ASP+)” value on OCT2 [7] is 88%. This compound also gave an IC50 at OCT2 [8] of 3620 nM. At OCT2 [9], the potency estimated from few doses was 2800 nM.
